Assay results reported in ChEMBL document CHEMBL1157462, “Sodium late current blockers in ischemia reperfusion: is the bullet magic?” (J Med Chem, 2008).
Activity calls are given as the source filed them. The rule behind the calls is not given here.

Legend:
Cardiac atrium [1] = assay: tissue or blood; settings: Rattus norvegicus, Wistar, 0.25 h, read-out: INH
Description: (§1) Inhibition of veratridine-induced diastolic contracture in Wistar rat atrium assessed as inhibition of systolic isometric tension of at 1 uM 15 mins

[2] = molecular target: T1, Sodium channel protein type 5 subunit alpha (Homo sapiens, UniProt Q14524); assay: Inhibition of human sodium Nav1.5 channel expressed in HEK293 cells assessed as inhibition of veratridine-induced late sodium current elicited at -30 mV from holding potential of -90 mV at 10 uM by patch clamp technique; format: cell-based; settings: for inhibition at 10 µM: HEK293, human
[3] = molecular target: T1, Sodium channel protein type 5 subunit alpha; assay: Inhibition of human sodium Nav1.5 channel expressed in HEK293 cells assessed as inhibition of veratridine-induced late sodium current elicited at -30 mV from holding potential of -110 mV at 10 uM by patch clamp technique; format: cell-based; settings: for inhibition at 10 µM: HEK293, human
Heart = assay: Inhibition of global ischemia-induced diastolic contracture in isolated Langendorff perfused guinea pig model heart at 1 uM after 15 mins; format: functional, Cavia porcellus
Cardiac atrium [4] = settings: Rattus norvegicus, Wistar, 1 uM
Description: as §1

Oryctolagus cuniculus [5] = assay: Effect on heart rate in anesthetized New Zealand white rabbit myocardial ischemia model assessed as beats per minute at 0.63 mg/kg; format: functional
Oryctolagus cuniculus [6] = assay: Effect on heart rate in anesthetized New Zealand white rabbit myocardial ischemia model assessed as beats per minute at 0.16 mg/kg; format: functional
Oryctolagus cuniculus [7] = assay: Effect on heart rate in anesthetized New Zealand white rabbit myocardial ischemia model assessed as beats per minute at 0.04 mg/kg; format: functional
Oryctolagus cuniculus [8] = assay: Reversal of ischemia-induced ST segment elevation in iv dosed anesthetized New Zealand white rabbit; format: functional
Oryctolagus cuniculus [9] = assay: Reversal of ischemia-induced ST segment elevation in anesthetized New Zealand white rabbit at 2.5 mg/kg, iv; format: functional, organism-based; set-up: dose 2.5 mg/kg
Oryctolagus cuniculus [10] = assay: Effect on heart rate in anesthetized New Zealand white rabbit myocardial ischemia model assessed as beats per minute at 2.5 mg/kg; format: functional
Oryctolagus cuniculus [11] = assay: Ratio of ED50 for reversal of ischemia-induced ST segment elevation in po dosed New Zealand white rabbit to ED50 for reversal of ischemia-induced ST segment elevation iv dosed New Zealand white rabbit; format: functional
[12] = molecular target: T1, Sodium channel protein type 5 subunit alpha; assay: Inhibition of sodium Nav1.5 channel assessed as inhibition of late sodium current elicited at -30 mV from holding potential of -110 mV
Oryctolagus cuniculus [13] = assay: Effect on heart rate in anesthetized New Zealand white rabbit myocardial ischemia model assessed as beats per minute at 0.01 mg/kg; format: functional
[14] = molecular target: T1, Sodium channel protein type 5 subunit alpha; assay: Inhibition of sodium Nav1.5 channel assessed as inhibition of late sodium current elicited at -30 mV from holding potential of -90 mV
Oryctolagus cuniculus [15] = assay: Reversal of ischemia-induced ST segment elevation in po dosed anesthetized New Zealand white rabbit; format: functional

T1 sequence (Q14524 whole entry): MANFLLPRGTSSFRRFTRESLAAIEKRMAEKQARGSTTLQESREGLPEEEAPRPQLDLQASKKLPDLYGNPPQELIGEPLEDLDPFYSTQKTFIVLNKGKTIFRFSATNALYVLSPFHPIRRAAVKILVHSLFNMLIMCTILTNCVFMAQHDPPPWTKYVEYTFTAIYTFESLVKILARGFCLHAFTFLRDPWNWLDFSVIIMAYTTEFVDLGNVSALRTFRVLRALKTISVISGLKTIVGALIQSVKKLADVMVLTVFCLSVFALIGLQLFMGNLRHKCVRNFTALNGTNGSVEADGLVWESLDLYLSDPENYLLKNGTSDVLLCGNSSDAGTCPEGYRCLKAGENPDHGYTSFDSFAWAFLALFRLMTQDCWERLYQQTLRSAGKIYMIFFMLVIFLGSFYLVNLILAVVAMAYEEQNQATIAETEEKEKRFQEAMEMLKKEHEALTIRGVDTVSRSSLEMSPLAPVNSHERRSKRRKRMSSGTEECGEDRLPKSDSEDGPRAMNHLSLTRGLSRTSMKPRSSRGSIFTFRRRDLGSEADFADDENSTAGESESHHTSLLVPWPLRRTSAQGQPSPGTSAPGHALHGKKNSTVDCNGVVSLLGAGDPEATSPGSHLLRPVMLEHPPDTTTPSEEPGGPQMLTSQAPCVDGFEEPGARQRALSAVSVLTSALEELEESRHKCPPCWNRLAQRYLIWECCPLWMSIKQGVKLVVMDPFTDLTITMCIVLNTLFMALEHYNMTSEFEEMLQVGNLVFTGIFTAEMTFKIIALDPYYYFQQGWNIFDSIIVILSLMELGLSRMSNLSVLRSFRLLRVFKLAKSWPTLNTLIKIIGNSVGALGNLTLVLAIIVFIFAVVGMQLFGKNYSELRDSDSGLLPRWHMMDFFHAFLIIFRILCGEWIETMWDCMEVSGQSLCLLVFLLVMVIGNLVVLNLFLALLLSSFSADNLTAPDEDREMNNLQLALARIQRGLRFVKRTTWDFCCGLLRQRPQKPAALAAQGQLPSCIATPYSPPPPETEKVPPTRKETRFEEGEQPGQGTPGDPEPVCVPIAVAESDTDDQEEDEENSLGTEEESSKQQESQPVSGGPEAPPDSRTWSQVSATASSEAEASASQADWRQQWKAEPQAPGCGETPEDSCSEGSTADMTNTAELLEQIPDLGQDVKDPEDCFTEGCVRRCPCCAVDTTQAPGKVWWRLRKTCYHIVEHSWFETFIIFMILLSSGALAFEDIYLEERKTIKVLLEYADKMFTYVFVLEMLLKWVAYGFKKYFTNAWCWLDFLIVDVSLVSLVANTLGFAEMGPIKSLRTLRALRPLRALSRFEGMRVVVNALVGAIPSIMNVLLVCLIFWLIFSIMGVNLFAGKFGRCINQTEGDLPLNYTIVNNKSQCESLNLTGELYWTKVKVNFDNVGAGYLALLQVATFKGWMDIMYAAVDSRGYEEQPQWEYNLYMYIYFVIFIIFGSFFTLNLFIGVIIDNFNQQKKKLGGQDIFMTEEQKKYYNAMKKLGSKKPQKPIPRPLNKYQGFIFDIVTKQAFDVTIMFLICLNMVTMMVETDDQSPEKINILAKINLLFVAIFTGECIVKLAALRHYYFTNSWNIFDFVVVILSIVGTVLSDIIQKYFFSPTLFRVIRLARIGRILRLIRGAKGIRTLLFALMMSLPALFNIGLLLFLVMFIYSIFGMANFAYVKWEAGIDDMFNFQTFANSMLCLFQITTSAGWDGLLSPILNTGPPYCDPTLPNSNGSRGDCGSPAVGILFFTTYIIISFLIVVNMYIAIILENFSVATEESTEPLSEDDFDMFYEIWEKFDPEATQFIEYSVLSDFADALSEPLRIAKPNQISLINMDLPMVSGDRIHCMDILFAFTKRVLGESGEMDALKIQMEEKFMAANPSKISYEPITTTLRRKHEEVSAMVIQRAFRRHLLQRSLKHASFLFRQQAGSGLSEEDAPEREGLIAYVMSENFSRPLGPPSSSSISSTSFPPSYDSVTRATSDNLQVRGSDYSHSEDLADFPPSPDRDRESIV

| Structure (SMILES) | inhibition at 1 µM (Cardiac atrium [1]) | inhibition at 10 µM [2] | inhibition at 10 µM [3] | inhibition (INH) (Heart) | further results |
| --- | --- | --- | --- | --- | --- |
| COc1ccccc1SC[C@H](CN[C@@H]1COc2ccccc2SC1)OC(C)=O | 9% | – | – | – | – |
| COc1ccccc1SCC(O)CN[C@@H]1COc2ccccc2SC1 (mixture of isomers) | 50% | 42% | 37% | – | – |
| COc1ccccc1SC[C@H](CN[C@@H]1COc2ccccc2SC1)C(C)C | 90% | 34% | 31% | 31% | – |
| COc1ccccc1SCCCN[C@@H]1COc2ccccc2SC1 | 3% | – | – | – | – |
| COc1ccccc1SC[C@@H](C)CN[C@H]1COc2ccccc2SC1 | 25% | 41% | 31% | – | – |
| CCC[C@@H](CN[C@@H]1COc2ccccc2SC1)CSc1ccccc1OC | 23% | 23% | 17% | – | – |
| NC1=N[C@H](O)[C@H]2[C@H]3O[C@]4(O)O[C@@H]([C@@H](O)[C@@]2(N1)[C@@H]4O)[C@]3(O)CO [TETRODOTOXIN] | – | – | – | – | inhibition (INH) ([2]; human, hek293, 10 µM): 87%; inhibition (Cardiac atrium [4]): 64%; inhibition (INH) ([3]; human, hek293, 10 µM): 79% |
| COc1ccccc1SC[C@H](CN[C@@H]1COc2ccccc2SC1)OC | 45% | 27% | 12% | 64% | – |
| CC[C@@H](CN[C@@H]1COc2ccccc2SC1)CSc1ccccc1OC | 86% | 54% | 46% | 68% | – |
| COc1cc2c(cc1OC)CC(=O)N(CCCN(C)C[C@H]1Cc3cc(OC)c(OC)cc31)CC2 [IVABRADINE] | – | – | – | – | Activity (Oryctolagus cuniculus [5]): -69.4 bpm; Activity (Oryctolagus cuniculus [6]): -20.7 bpm; Activity (Oryctolagus cuniculus [7]): -3.4 bpm; ED50 (Oryctolagus cuniculus [8]): 0.59 mg/kg; Activity (Oryctolagus cuniculus [9]): Active; Activity (Oryctolagus cuniculus [10]): -112.6 bpm |
| CCO[C@@H](CN[C@@H]1COc2ccccc2SC1)CSc1ccccc1OC | 46% | 34% | 22% | 33% | – |
| COc1ccccc1OCC(O)CN1CCN(CC(=O)Nc2c(C)cccc2C)CC1 (configuration not stated) [RANOLAZINE] | – | 19% | 11% | – | ED50 (Oryctolagus cuniculus [8]): > 2.5 mg/kg |
| COc1ccccc1SCC(O)CN[C@H]1COc2ccccc2SC1 (mixture of isomers) | 26% | 21% | 16% | – | – |
| COc1ccccc1SC[C@H](O)CN[C@@H]1COc2ccccc2SC1 | 7% | 30% | 26% | – | – |
| COc1ccccc1SC[C@@H](O)CN[C@@H]1COc2ccccc2SC1 | 54% | 75% | 69% | 14% | – |
| COc1ccccc1SC[C@@H](C)CN[C@@H]1COc2ccccc2SC1 | 74% | 70% | 53% | 65% | Ratio ED50 (Oryctolagus cuniculus [11]): 2.6; Activity (Oryctolagus cuniculus [5]): -3.2 bpm; Activity (Oryctolagus cuniculus [6]): -6.4 bpm; IC50 [12]: 2.56 µM; Activity (Oryctolagus cuniculus [13]): -3.2 bpm; Activity (Oryctolagus cuniculus [7]): 0.3 bpm; ED50 (Oryctolagus cuniculus [8]): 0.05 mg/kg; IC50 [14]: 5.77 µM; Activity (Oryctolagus cuniculus [10]): -8.6 bpm; ED50 (Oryctolagus cuniculus [15]): 0.13 mg/kg |
| C=C(CN[C@@H]1COc2ccccc2SC1)CSc1ccccc1OC | 26% | 37% | 36% | – | – |
| COc1ccccc1SC[C@H](CN[C@@H]1COc2ccccc2SC1)OC(=O)c1ccccc1 | 3% | – | – | – | – |
| CCCO[C@@H](CN[C@@H]1COc2ccccc2SC1)CSc1ccccc1OC | 30% | 27% | 27% | – | – |
| COc1ccc(CCN(C)CCCOc2nsc(-c3ccccc3)n2)cc1OC | 45% | 60% | 60% | 39% | – |
| COc1ccccc1SCC(CN[C@@H]1COc2ccccc2SC1)=C(C)C | 42% | 37% | 31% | 16% | – |
| COc1ccccc1SC[C@H](C)CN[C@@H]1COc2ccccc2SC1 | 38% | 34% | 22% | – | – |
| COc1ccccc1SC[C@@H](F)CN[C@@H]1COc2ccccc2SC1 | 32% | 19% | 11% | – | – |
| COc1ccccc1SC[C@H](C)CN[C@H]1COc2ccccc2SC1 | 26% | 44% | 30% | – | – |
